Legend:
[1] = test system: CD8+ T cells; assay: Exogenous autologous healthy donor restimulation assay, TNFα and IFNγ production by CD8+ T cells; assay type: cell-based, human; set-up: Frequency (TNFα+ IFNγ+ CD8 T cells): unit not given here; settings: for Fold change (CD8+) vs. DMSO: maximum CD8+ T-cell response (TNFα and IFNγ); for Fold change (CD8+) vs. DMSO / Frequency (TNFα+ IFNγ+ CD8 T cells): donor independent, peptide pool 10 μg/mL, healthy donors; for Frequency (TNFα+ IFNγ+ CD8 T cells): maximum CD8+ T-cell response; for Immunogenic (yes/no): positive if CD8+ and/or CD4+ double positive TNFα/IFNγ frequency >=3-fold over DMSO and at least 0.01%
Procedure: (§1) Immunogenicity responses were measured by estimating TNFα IFNγ double positive cells in the CD4+ and/or CD8+ T-cell populations. A response is considered positive if TNFα IFNγ double positive fraction was greater than or equal to three-fold over unstimulated cells (DMSO negative control) with a minimum frequency >=0.01%. […]
(§2) Overlapping 15-mer peptides were designed to span each indicated neoantigen. Their ability to activate T cells was assessed using known methods, such as the assay defnied as exogenous autologous normal donor restimulation assay. The peptides were used as pools using TNFα and IFNγ production by CD8^+ and CD4^+ T cells as a readout. Maximum frequency of CD8^+TNFα^+IFNγ^+ and CD4^+TNFα^+IFNγ^+ T cells and maximum fold change over background for each pool of peptides were analyzed, which were calculated as the highest frequency of CD8^+ TNFα^+IFNγ^+ and CD4^+ TNFα^+IFNγ^+ T cells and resulting fold change across the normal donors evaluated for the peptide.
(§3) CD1c+Dendritic Cells (CD1c+DC) isolated from human healthy PBMCs were thawed using media (IMDM (Gibco) supplemented with glutamine, HEPES, 5% human serum (Sigma), and 1× Pen-Strep). DC cells were resuspended in media supplemented with IL-4 (Peprotech, 20 ng/mL) and GM-CSF (Gibco, 20 ng/mL), plated in 6 well microplates, and rested overnight at 37° C. and 5% CO2 incubator. The following day, DC cells were counted and plated in a 96 well round bottom microplate at a concentration of 30,000 viable cells per well. Lyophilized neoantigen peptide pools (15-mer peptides with 8-mer overlapping peptide sequences) were solubilized in 100% DMSO with a stock concentration of 20 mg/mL Neoantigen peptides pools were added to DCs for a final concentration of 10 μg/mL and rested for 2 hours at 37° C. and 5% CO2 incubator. CEF Peptide Pool “Plus” (Cellular Technologies, Ltd.) was utilized as a positive control (each viral peptide at a final concentration of 4 ug/ml) and DMSO at the same final concentration (0.05%) as the experimental peptides was utilized as a negative control. After 2 hours, DC cells were irradiated with 50 gray of ionizing radiation. Autologous CD3+ Pan-T cells isolated from human normal PBMCs were thawed using media. Following irradiation, autologous Pan-T cells were added to the irradiated DCs at 300,000 viable cells per well. Human IL-15 (Peprotech) was added to all wells at final concentration of 10 ng/ml. Plates were incubated at 37° C. and 5% CO2 incubator for a total of 12 days. Media was refreshed every 2-3 days with IL-15 (R&D System, 10 ng/mL final concentration) and IL-2 (R&D systems, 10 IU/mL final concentration).
(§4) On Day 11, cells were re-stimulated with identical experimental peptide pools or controls, at same concentration as peptide stimulation on Day 1. Protein Inhibitor Cocktail (eBioscience) was added to every well and plate was incubated overnight for 14-16 hours at 37° C. and 5% CO2 incubator. On Day 12, cells were stained for surface and intracellular flow cytometry analysis. The cells were washed with PBS and stained with Live/Dead Fixable Aqua Dead Cell stain (Thermo-Fisher). Following the live/dead stain, cells were blocked using Biotin-Free Fc Receptor Blocker (Accurate Chemical & Scientific Corp). Extracellular cellular flow panel (1 μL/antibody per well in 50 μL) consisted of CD3 PerCP-Cy5.5 (Biolegend), CD4 BV421 (Biolegend), and CD8 APC-Cy7 (Biolegend). After extracellular staining, cells were fixed and permeabilized using Foxp3/Transcription Factor Staining Buffer Set (eBioscience) and stained for intracellular proteins (1:50 dilution) using TNFα FITC (R&D Systems) and IFNγ BV785 (Biolegend). Cells were washed and resuspended in stain buffer, analyzed, and recorded in a BD Celesta flow cytometer.
(§5) Flow cytometry analysis was conducted on FlowJo v10.6 software. Cells were gated on live, singlet, CD3+, CD4+ and CD8+ T cells. The CD8+ and CD4+ T cells were analyzed for TNFα and IFNγ expression. […]

[2] = test system: CD4+ T cells; assay: Exogenous autologous healthy donor restimulation assay, TNFα and IFNγ production by CD4+ T cells; assay type: cell-based, human; set-up: Frequency (TNFα+ IFNγ+ CD4 T cells): unit not given here; settings: donor independent, peptide pool 10 μg/mL, healthy donors; for Fold change (CD4+) vs. DMSO: maximum CD4+ T-cell response (TNFα and IFNγ); for Frequency (TNFα+ IFNγ+ CD4 T cells): maximum CD4+ T-cell response
Procedure: as §1, §2, §3, §4, §5

| Substance | Fold change (CD8+) vs. DMSO [1] | Frequency (TNFα+ IFNγ+ CD8 T cells) [1] | Immunogenic (yes/no) [1] | Fold change (CD4+) vs. DMSO [2] | Frequency (TNFα+ IFNγ+ CD4 T cells) [2] |
| --- | --- | --- | --- | --- | --- |
| AAGVVTEIEAAVKA [FUS17, gene fusion HBS1L-> ALDH8A1] | 5.31 | 0.13 | Yes | 2.11 | 0.012 |
| ACGACGAGFFIKQKCIEQRESRSLS [FUS22, gene fusion IGLL5-> COMMD3-BMI1, BMI1] | 89.07 | 0.11 | Yes | 0.86 | 0.006 |
| AFIYHAFVGSTKTAWRTTL [FUS13, gene fusion KCNQ5-> KCNQ5-IT1] | 3.96 | 0.033 | Yes | 8.79 | 0.057 |
| AGDVLFIPGISLKVHKVQHSKVINICN [AS55, alternative splicing, TYW5] | 96.05 | 0.17 | Yes | 27.71 | 0.042 |
| AKFWSDISINRAPSFG [AS94, alternative splicing, TTLL7] | 97.14 | 2.72 | Yes | 62.53 | 0.63 |
| ARHLLTLGTCGSTWP [FUS26, gene fusion P2RY6-> ARHGEF17] | 7.07 | 0.1 | Yes | 2.46 | 0.026 |
| ARWFTREQGSEN [FUS12, gene fusion NUDT12-> LINC02115] | 24.68 | 0.58 | Yes | 2.77 | 0.027 |
| CEIMPLQSYILL [AS37, alternative splicing, FAM13A] | 17.37 | 0.32 | Yes | 576.132 | 0.21 |
| CKVCQNCKNPKMARAS [AS23, alternative splicing, KMT2C] | 3.05 | 0.065 | Yes | 18 | 0.063 |
| CRERGLQEAEGDVAAL [FUS40, gene fusion KLF2-> TPM4] | 18.3 | 0.43 | Yes | 1.26 | 0.024 |
| DLFDEFDNSRLVSRSWFFFYLRNKWNLALGF [AS24, alternative splicing, ST3GAL6] | 1300 | 0.13 | Yes | 613.88 | 3.14 |
| DLNQDGYNGNLNQSVEVIYVSSPLHKGDHACFKVFSMVCVGAVIITDF [AS64, alternative splicing, ITGA8] | 6.83 | 0.8 | Yes | 376.11 | 0.57 |
| DMEVFLKEASTNQHNTLIHLTLTFST [AS73, alternative splicing, SMC5] | 3 | 0.02 | Yes | 72.58 | 0.11 |
| DPTTKRSRLTPKLHFLVERNPRWSQEQRKYL [AS92, alternative splicing, MSI2] | 41.24 | 0.073 | Yes | 31.67 | 0.048 |
| DVAVICSGRRSARDP [FUS4, gene fusion CD5L-> FCRL1] | 3.1 | 0.04 | No | 7.13 | 0.029 |
| DVAVICSGVPVADVS [FUS5, gene fusion CD5L-> FCRL1] | 4.59 | 0.079 | Yes | 6.97 | 0.021 |
| EGTPFEDGKSYSLCFL [AS78, alternative splicing, UBE2B] | 29.32 | 0.52 | Yes | 3.14 | 0.024 |
| ERSHSKKKDGLVRNDGPGFPPMFSTSENTNLD [AS54, alternative splicing, SETBP1] | 0.73 | 0.008 | Yes | 90.535 | 0.033 |
| FALMASLGIPQTMAA [FUS56, gene fusion ZNF772-> VN1R1] | 2.73 | 0.007 | Yes | 115.03 | 0.75 |
| FGTSHMMVRHF [AS33, alternative splicing, CFAP54] | 47.27 | 0.49 | Yes | 2.78 | 0.009 |
| FLQKHGNENTVLMLETLSEIRYGYVSCVCCPLLSPYGRCLN [AS26, alternative splicing, AGFG1] | 84.36 | 0.75 | Yes | 5.7 | 0.097 |
| FSMRPAFGETALGCKKW [AS19, alternative splicing, GABRR2] | 140 | 0.031 | Yes | 23.16 | 0.12 |
| FSQNMNTKMIRGTERKQQYYGLQILE [AS134, alternative splicing, XPO1] | 4.51 | 0.091 | Yes | 1.429 | 0.02 |
| FU524 (SGLEAIQRGYETFYSE) | 259.11 | 0.48 | Yes | 3.13 | 0.014 |
| GEKILFIRVKFYFSLILFLWEDSEFELGEI [AS9, alternative splicing, GAS2] | 358.4 | 1.99 | Yes | 20.874 | 0.099 |

— US20210261636A1, “NEOANTIGENS EXPRESSED IN MULTIPLE MYELOMA AND THEIR USES” (Janssen Biotech, Inc., priority 2020, published 2021)
